US12091425B2 (AMGEN INC., priority 2016, dated 2024)

Biological target: T1, Mcl-1/Bim interaction, recombinant human Mcl-1 (171-327) (Homo sapiens, UniProt Q07820)
T1 construct: made in house
Test: Cell free Mcl-1: Bim Affinity Assay (Mcl-1 HTRF)
Type: binding
Method: Cell free Mcl-1: Bim Affinity Assay (Mcl-1 HTRF)
The inhibition of the Mcl-1/Bim interaction was measured using a time-resolved fluorescence resonance energy transfer (TR-FRET) assay. […] A biotinylated peptide derived from human Bim (residues 51-76) was purchased from CPC Scientific (San Jose, CA). The TR-FRET assay was conducted in a 384-well white OptiPlatem (PerkinElmer, Waltham, MA) in a total volume of 40 μL. […] The reaction plates were further incubated overnight and then were read on an Envision® multimode reader (PerkinElmer). […] The IC50 values of test compounds were determined from duplicate data by analyzing competition curves using a four-parameter sigmoidal model in GraphPad Prism (GraphPad Software, San Diego, CA) or in Genedata Screener® (Genedata, Basel, Switzerland).

[1] = TR-FRET, 0.1 nM Mcl-1 (171-327), 0.05 nM biotin-Bim (51-76)
[2] = cell free Mcl-1:Bim TR-FRET, recombinant human Mcl-1 (171-327)

T1 sequence (Q07820 171-327): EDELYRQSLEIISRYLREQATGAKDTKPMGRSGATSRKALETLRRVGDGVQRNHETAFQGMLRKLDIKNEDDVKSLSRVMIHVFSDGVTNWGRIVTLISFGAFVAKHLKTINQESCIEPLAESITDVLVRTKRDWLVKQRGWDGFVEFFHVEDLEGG

SMILES	IC50 [1] [nM]	IC50 [2] [nM]
O=C1NS(=O)(=O)CCCCCS(=O)(=O)C2CCC2CN2C[C@@]3(CCCc4cc(Cl)ccc43)COc3ccc1cc32 (mixture of isomers) [Example 196]	22.2	–
CC(=O)N1C/C=C/CS(=O)(=O)NC(=O)c2ccc3c(c2)N(C[C@@H]2CC[C@H]2C1)C[C@@]1(CCCc2cc(Cl)ccc21)CO3.CC(=O)N1C/C=C\CS(=O)(=O)NC(=O)c2ccc3c(c2)N(C[C@@H]2CC[C@H]2C1)C[C@@]1(CCCc2cc(Cl)ccc21)CO3 (mixture of isomers) [Example 371, (1S,3′R,6′R,10′E)-8′-acetyl-6-chloro-3,4-dihydro-2H,15′H-spiro[naphthalene-1,22′-[20]oxa[13]thia[1,8,14]triazatetracyclo[14.7.2.0^3,6.0^19,24]pentacosa[10,16,18,24]tetraen]-15′-one 13′,13′-dioxide and (1S,3′R,6′R,10′Z)-8′-acetyl-6-chloro-3,4-dihydro-2H,15′H-spiro[naphthalene-1,22′-[20]oxa[13]thia[1,8,14]triazatetracyclo[14.7.2.0^3,6.0^19,24]pentacosa[10,16,18,24]tetraen]-15′-one 13′,13′-dioxide]	20.8	–
O=C1NS(=O)(=O)C[C@@H](CO)C/C=C/C[C@H](O)[C@@H]2CC[C@H]2CN2C[C@@]3(CCCc4cc(Cl)ccc43)COc3ccc1cc32.O=C1NS(=O)(=O)C[C@H](CO)C/C=C/C[C@H](O)[C@@H]2CC[C@H]2CN2C[C@@]3(CCCc4cc(Cl)ccc43)COc3ccc1cc32 (mixture of isomers) [Example 710]	–	25.6
O=C1NS(=O)(=O)CCC=CC(O)C2CCC2CN2CC3(CCCc4cc(Cl)ccc43)COc3ccc1cc32 (mixture of isomers) [Example 776, (1S,3′R,6′R,7′S,8′E)-6-chloro-7′-hydroxy-3,4-dihydro-2H,14′H-spiro[naphthalene-1,21′-[19]oxa[12]thia[1,13]diazatetracyclo [13.7.2.0^3,6.0^18,23]tetracosa[8,15,17,23]tetraen]-14′-one 12′,12′-dioxide and (1S,3′R,6′R,7′S,8′Z)-6-chloro-7′-hydroxy-3,4-dihydro-2H,14′H-spiro[naphthalene-1,21′-[19]oxa[12]thia[1,13]diazatetracyclo[13.7.2.0^3,6.0^18,23]tetracosa[8,15,17,23]tetraen]-14′-one 12′,12′-dioxide]	–	2.71
O=C1NS(=O)(=O)C[C@@H]2C[C@@H]2CC[C@H](O)[C@@H]2CC[C@H]2CN2C[C@@]3(CCCc4cc(Cl)ccc43)COc3ccc1cc32.O=C1NS(=O)(=O)C[C@H]2C[C@H]2CC[C@H](O)[C@@H]2CC[C@H]2CN2C[C@@]3(CCCc4cc(Cl)ccc43)COc3ccc1cc32 (mixture of isomers) [Example 787]	–	21.4
O=C1NS(=O)(=O)CCCCCC(=NO)C2CCC2CN2CC3(CCCc4cc(Cl)ccc43)COc3ccc1cc32 (mixture of isomers) [Example 932, (1S,3′R,6′R,7′Z)-6-chloro-3,4-dihydro-2H,7′H,15′H-spiro[naphthalene-1,22′-[20]oxa[13]thia[1,14]diazatetracyclo[14.7.2.0^3,6.0^19,24]pentacosa [16,18,24]triene]-7,15′-dione 7-OXIME 13′,13′-dioxide and (1S,3′R,6′R,7′E)-6-chloro-3,4-dihydro-2H,7′H,15′H-spiro[naphthalene-1,22′-[20]oxa[13]thia[1,14]diazatetracyclo[14.7.2.0^3,6.0^19,24]pentacosa [16,18,24]triene]-7′,15′-dione 7-OXIME 13′,13′-dioxide]	–	3.69
CC[C@@H]1CC/C=C/[C@H](OCCO[C@H]2CCCCO2)[C@@H]2CC[C@H]2CN2C[C@@]3(CCCc4cc(Cl)ccc43)COc3ccc(cc32)C(=O)NS1(=O)=O (mixture of isomers) [Example 969]	2.91	–
CCC1CCC=CC(OC(C)C(=O)N(C)C)C2CCC2CN2CC3(CCCc4cc(Cl)ccc43)COc3ccc(cc32)C(=O)NS1(=O)=O (mixture of isomers) [Example 985]	1.46	–
CCN1CC/C=C\[C@H](O)[C@@H]2CC[C@H]2CN2C[C@@]3(CCCc4cc(Cl)ccc43)COc3ccc(cc32)C(=O)NS1(=O)=O (single isomer, unassigned) [Example 30]	1.92	–
CO[C@H]1/C=C/CCNS(=O)(=O)NC(=O)c2ccc3c(c2)N(C[C@@H]2CC[C@H]21)C[C@@]1(CCCc2cc(Cl)ccc21)CO3 (single isomer, unassigned) [Example 46]	0.367	–
O=C1NS(=O)(=O)C/C=C/CNC(=O)[C@@H]2CC[C@H]2CN2C[C@@]3(CCCc4cc(Cl)ccc43)COc3ccc1cc32 (single isomer, unassigned) [Example 97, (1S,3′R,6′R,10′E)-6-chloro-3,4-dihydro-2H,7′H,15′H-spiro[naphthalene-1,22′-[20]oxa[13]thia[1,8,14]triazatetracyclo[14.7.2.0^3,6.0^19,24]pentacosa[10,16,18,24]tetraen]-7′,15′-dione 13′,13′-dioxide or (1S,3′R,6′R,10′Z)-6-chloro-3,4-dihydro-2H,7′H,15′H-spiro[naphthalene-1,22′-[20]oxa[13]thia[1,8,14]triazatetracyclo[14.7.2.0^3,6.0^19,24]pentacosa[10,16,18,24]tetraen]-7′,15′-dione 13′,13′-dioxide]	12.6	–
O=C1NS(=O)(=O)C2CCCC(CCC(O)C3CCC3CN3CC4(CCCc5cc(Cl)ccc54)COc4ccc1cc43)C2 (single isomer, unassigned) [Example 106]	16.9	–
C[C@@H]1CC/C=C/[C@H](O)[C@]2(C)CC[C@H]2CN2C[C@@]3(CCCc4cc(Cl)ccc43)COc3ccc(cc32)C(=O)NS1(=O)=O (single isomer, unassigned) [Example 116]	0.856	–
C[C@@H]1CC/C=C/[C@H](O)[C@]2(C)CC[C@H]2CN2C[C@@]3(CCCc4cc(Cl)ccc43)COc3ccc(cc32)C(=O)NS1(=O)=O (single isomer, unassigned) [Example 118]	34.9	–
C[C@]12CC[C@H]1CN1C[C@@]3(CCCc4cc(Cl)ccc43)COc3ccc(cc31)C(=O)NS(=O)(=O)CCCCC[C@@H]2O (single isomer, unassigned) [Example 121]	12.2	–
C[C@]12CC[C@H]1CN1C[C@@]3(CCCc4cc(Cl)ccc43)COc3ccc(cc31)C(=O)NS(=O)(=O)CCCCC[C@@H]2O (single isomer, unassigned) [Example 122]	7.17	–
C[C@]12CC[C@H]1CN1C[C@@]3(CCCc4cc(Cl)ccc43)COc3ccc(cc31)C(=O)NS(=O)(=O)CCCCC[C@@H]2O (single isomer, unassigned) [Example 123]	4.3	–
N#C[C@@H]1CC/C=C\[C@H](O)[C@@H]2CC[C@H]2CN2C[C@@]3(CCCc4cc(Cl)ccc43)COc3ccc(cc32)C(=O)NS1(=O)=O (single isomer, unassigned) [Example 153]	1.22	–
CC[C@@H]1CC[C@@H](O)/C=C/[C@@H]2CC[C@H]2CN2C[C@@]3(CCCc4cc(Cl)ccc43)COc3ccc(cc32)C(=O)NS1(=O)=O (single isomer, unassigned) [Example 198]	3.24	–
O=C1NS(=O)(=O)[C@H]2C[C@@H](O)C[C@@H]2C/C=C/[C@H](O)[C@@H]2CC[C@H]2CN2C[C@@]3(CCCc4cc(Cl)ccc43)COc3ccc1cc32 (single isomer, unassigned) [Example 336]	1.51	–
CC(=O)N1C[C@@H]2C/C=C/[C@H](O)[C@@H]3CC[C@H]3CN3C[C@@]4(CCCc5cc(Cl)ccc54)COc4ccc(cc43)C(=O)NS(=O)(=O)[C@H]2C1 (single isomer, unassigned) [Example 339]	2.71	–
